Data on three molecules can be found in PubChem BioAssay AID1259407 (Chemical Carcinogenesis Research Information System (CCRIS), 2018).

Active and inactive are the calls of the source. No rule for the calls is given here.

The test system of the series is CCRIS mutagenicity, Ames/micronucleus/aberration tests. The series can be described thus: CCRIS mutagenicity studies.
The mark [1] stands for this setting: Test System: AMES SALMONELLA TYPHIMURIUM, Strain/Indicator: TA98, Metabolic Activation: NONE, Method: PREINCUBATION
[2] abbreviates: Test System: AMES SALMONELLA TYPHIMURIUM, Strain/Indicator: TA100, Metabolic Activation: NONE, Method: PREINCUBATION
Setting [3] is: Test System: AMES SALMONELLA TYPHIMURIUM, Strain/Indicator: TA1535, Metabolic Activation: NONE, Method: PREINCUBATION
[4] abbreviates: Test System: AMES SALMONELLA TYPHIMURIUM, Strain/Indicator: TA1537, Metabolic Activation: NONE, Method: PREINCUBATION

Consider `C=CC=O`, for which the mutagenic call runs as follows: (End Point: IN VITRO CHROMOSOMAL ABERRATIONS, Test System: CHINESE HAMSTER OVARY CELLS, Metabolic Activation: NONE) “inactive; negative”; (End Point: IN VITRO CHROMOSOMAL ABERRATIONS, Test System: CHINESE HAMSTER OVARY CELLS, Metabolic Activation: RAT, LIVER, S-9, AROCLOR 1254) “inactive; negative”; under setting [1], “active; positive”; (Test System: AMES SALMONELLA TYPHIMURIUM, Strain/Indicator: TA100, Metabolic Activation: GLUTATHIONE, Method: PREINCUBATION) “active; positive”; under setting [2], “active; positive”; (Test System: AMES SALMONELLA TYPHIMURIUM, Strain/Indicator: TA100, Metabolic Activation: RAT, LIVER, S-9, AROCLOR 1254, Method: PREINCUBATION) “active; positive”. In addition, the mutagenic call by setting is: (Test System: AMES SALMONELLA TYPHIMURIUM, Strain/Indicator: TA102, Metabolic Activation: NONE, Method: STANDARD PLATE) “inactive; negative”; (Test System: AMES SALMONELLA TYPHIMURIUM, Strain/Indicator: TA104, Metabolic Activation: GLUTATHIONE, Method: PREINCUBATION) “active; positive”; (Test System: AMES SALMONELLA TYPHIMURIUM, Strain/Indicator: TA104, Metabolic Activation: NONE, Method: PREINCUBATION) “active; positive”; under setting [3], “inactive; negative”; (Test System: AMES SALMONELLA TYPHIMURIUM, Strain/Indicator: TA1535, Metabolic Activation: RAT, LIVER, S-9, AROCLOR 1254, Method: PREINCUBATION) “inactive; negative”; under setting [4], “inactive; negative”. In addition, the mutagenic call is “inactive; negative” (Test System: AMES SALMONELLA TYPHIMURIUM, Strain/Indicator: TA1537, Metabolic Activation: RAT, LIVER, S-9, AROCLOR 1254, Method: PREINCUBATION); “inactive; negative” (Test System: AMES SALMONELLA TYPHIMURIUM, Strain/Indicator: TA1538, Metabolic Activation: NONE, Method: PREINCUBATION); “inactive; negative” (Test System: AMES SALMONELLA TYPHIMURIUM, Strain/Indicator: TA1538, Metabolic Activation: RAT, LIVER, S-9, AROCLOR 1254, Method: PREINCUBATION); “active; positive” (Test System: AMES SALMONELLA TYPHIMURIUM, Strain/Indicator: TA2638, Metabolic Activation: NONE, Method: STANDARD PLATE); “inactive; negative” (Test System: CHINESE HAMSTER OVARY, Strain/Indicator: AS52/6-THIOGUANINE, Metabolic Activation: NONE, Method: STANDARD PLATE); “inactive; negative” (Test System: CHINESE HAMSTER OVARY, Strain/Indicator: CHO-K1-BH4 (HGPRT)/6-THIOGUANINE, Metabolic Activation: NONE). The mutagenic call was “inactive; negative” (Test System: CHINESE HAMSTER OVARY, Strain/Indicator: CHO-K1-BH4 (HGPRT)/6-THIOGUANINE, Metabolic Activation: RAT, LIVER, S-9, AROCLOR 1254); “active; positive” (Test System: CHINESE HAMSTER V-79, Strain/Indicator: V-79/6-THIOGUANINE, Metabolic Activation: NONE); “inactive; negative” (Test System: E. COLI, Strain/Indicator: WP2 (PKM101), Metabolic Activation: NONE, Method: STANDARD PLATE); “inactive; negative” (Test System: E. COLI, Strain/Indicator: WP2 UVRA (PKM101), Metabolic Activation: NONE, Method: STANDARD PLATE); “inactive; negative” (Test System: E. COLI, Strain/Indicator: WP2 UVRA, Metabolic Activation: NONE, Method: PREINCUBATION).
Take `CC(=O)c1c(=O)cc(C)oc1=O`: the mutagenic call reads like this: (End Point: IN VIVO MICRONUCLEUS, Test System: BONE MARROW POLYCHROMATIC ERYTHROCYTES, Species: MOUSE, Strain/Sex: DDY/MALE, Route: IP) “active; positive”; (Test System: AMES SALMONELLA TYPHIMURIUM, Strain/Indicator: TA97A, Metabolic Activation: NONE, Method: PREINCUBATION) “inactive; negative”; (Test System: AMES SALMONELLA TYPHIMURIUM, Strain/Indicator: TA97A, Metabolic Activation: RAT, LIVER, S-9, AROCLOR 1254, Method: PREINCUBATION) “inactive; negative”; (Test System: AMES SALMONELLA TYPHIMURIUM, Strain/Indicator: TA98, Metabolic Activation: HAMSTER, LIVER, S-9, AROCLOR 1254 (10%), Method: PREINCUBATION) “inactive; negative”; under setting [1], “inactive; negative”; (Test System: AMES SALMONELLA TYPHIMURIUM, Strain/Indicator: TA98, Metabolic Activation: RAT, LIVER, S-9, AROCLOR 1254 (10%), Method: PREINCUBATION) “inactive; negative”. The mutagenic call was “inactive; negative” (Test System: AMES SALMONELLA TYPHIMURIUM, Strain/Indicator: TA100, Metabolic Activation: HAMSTER, LIVER, S-9, AROCLOR 1254 (10%), Method: PREINCUBATION); “inactive; negative” under setting [2]; “inactive; negative” (Test System: AMES SALMONELLA TYPHIMURIUM, Strain/Indicator: TA100, Metabolic Activation: RAT, LIVER, S-9, AROCLOR 1254 (10%), Method: PREINCUBATION); “inactive; negative” (Test System: AMES SALMONELLA TYPHIMURIUM, Strain/Indicator: TA102, Metabolic Activation: NONE, Method: PREINCUBATION); “inactive; negative” (Test System: AMES SALMONELLA TYPHIMURIUM, Strain/Indicator: TA102, Metabolic Activation: RAT, LIVER, S-9, AROCLOR 1254, Method: PREINCUBATION); “inactive; negative” (Test System: AMES SALMONELLA TYPHIMURIUM, Strain/Indicator: TA1535, Metabolic Activation: HAMSTER, LIVER, S-9, AROCLOR 1254 (10%), Method: PREINCUBATION). Moreover, the mutagenic call is “inactive; negative” under setting [3]; “inactive; negative” (Test System: AMES SALMONELLA TYPHIMURIUM, Strain/Indicator: TA1535, Metabolic Activation: RAT, LIVER, S-9, AROCLOR 1254 (10%), Method: PREINCUBATION); “inactive; negative” (Test System: AMES SALMONELLA TYPHIMURIUM, Strain/Indicator: TA1537, Metabolic Activation: HAMSTER, LIVER, S-9, AROCLOR 1254 (10%), Method: PREINCUBATION); “inactive; negative” under setting [4]; “inactive; negative” (Test System: AMES SALMONELLA TYPHIMURIUM, Strain/Indicator: TA1537, Metabolic Activation: RAT, LIVER, S-9, AROCLOR 1254 (10%), Method: PREINCUBATION).
Regarding `CC(Br)(CBr)CBr`, the mutagenic call was “inactive; negative” (Test System: AMES SALMONELLA TYPHIMURIUM, Strain/Indicator: TA98, Metabolic Activation: NONE, Method: FLASK ASSAY); “inactive; negative” (Test System: AMES SALMONELLA TYPHIMURIUM, Strain/Indicator: TA98, Metabolic Activation: RAT, LIVER, S-9, AROCLOR 1254, Method: FLASK ASSAY); “inactive; negative” (Test System: AMES SALMONELLA TYPHIMURIUM, Strain/Indicator: TA100, Metabolic Activation: NONE, Method: FLASK ASSAY); “inactive; negative” (Test System: AMES SALMONELLA TYPHIMURIUM, Strain/Indicator: TA100, Metabolic Activation: RAT, LIVER, S-9, AROCLOR 1254, Method: FLASK ASSAY); “inactive; negative” (Test System: AMES SALMONELLA TYPHIMURIUM, Strain/Indicator: TA1535, Metabolic Activation: NONE, Method: FLASK ASSAY); “inactive; negative” (Test System: AMES SALMONELLA TYPHIMURIUM, Strain/Indicator: TA1535, Metabolic Activation: RAT, LIVER, S-9, AROCLOR 1254, Method: FLASK ASSAY). Besides, the mutagenic call (Test System: AMES SALMONELLA TYPHIMURIUM, Strain/Indicator: TA1537, Metabolic Activation: NONE, Method: FLASK ASSAY) was “inactive; negative”; the mutagenic call (Test System: AMES SALMONELLA TYPHIMURIUM, Strain/Indicator: TA1537, Metabolic Activation: RAT, LIVER, S-9, AROCLOR 1254, Method: FLASK ASSAY) is “inactive; negative”; the mutagenic call (Test System: AMES SALMONELLA TYPHIMURIUM, Strain/Indicator: TA1538, Metabolic Activation: NONE, Method: FLASK ASSAY) is “inactive; negative”; the mutagenic call (Test System: AMES SALMONELLA TYPHIMURIUM, Strain/Indicator: TA1538, Metabolic Activation: RAT, LIVER, S-9, AROCLOR 1254, Method: FLASK ASSAY) was “inactive; negative”; the mutagenic call (Test System: MOUSE LYMPHOMA, Strain/Indicator: L5178Y (TK+/TK-), Metabolic Activation: NONE, Method: SUSPENSION/PLATE) was “active; positive”; the mutagenic call (Test System: MOUSE LYMPHOMA, Strain/Indicator: L5178Y (TK+/TK-), Metabolic Activation: RAT, LIVER, S-9, AROCLOR 1254, Method: SUSPENSION/PLATE) was “active; positive”.
